Measured values: PubChem BioAssay AID1418 (Emory University Molecular Libraries Screening Center, 2008)
The source made the active and inactive calls. How the calls were made is not given here.

The compounds below were run against Induced myeloid leukemia cell differentiation protein Mcl-1 (Homo sapiens) (UniProt Q07820) (assay: blockers of Bid binding to Mcl-1 – biochemical, TR-FRET, dose response (AID 1418)). Details: Mcl-1/Bid peptide binding, TR-FRET (europium/Dy647), 2 hr.
Induced myeloid leukemia cell differentiation protein Mcl-1 (Homo sapiens), sequence (Q07820 whole entry, looked up): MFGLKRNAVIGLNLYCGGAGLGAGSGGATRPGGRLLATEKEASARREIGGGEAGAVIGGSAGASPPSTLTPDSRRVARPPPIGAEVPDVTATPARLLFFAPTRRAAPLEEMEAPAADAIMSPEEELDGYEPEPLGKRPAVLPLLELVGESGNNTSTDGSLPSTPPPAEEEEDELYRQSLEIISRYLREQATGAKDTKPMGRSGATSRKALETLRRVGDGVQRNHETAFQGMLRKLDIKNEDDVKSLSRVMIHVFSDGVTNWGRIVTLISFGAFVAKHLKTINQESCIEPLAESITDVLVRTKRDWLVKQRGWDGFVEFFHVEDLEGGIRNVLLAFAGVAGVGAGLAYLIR
In the case of COc1ccccc1NC(=O)c1cn(C)c(=O)c2cc(OC)c(OC)cc12, the IC50 is reported as > 54 µM (inactive). CCCOP(=O)(OCCC)C(NC(=O)c1ccccc1)=C(Cl)Cl showed an IC50 of 0.53 µM. Clc1cccc(Cl)c1CON/C=N/c1ncnc2sccc12 was tested, and the IC50 was > 54 µM (inactive). For O=S(=O)(c1ccc(NC(=S)NCc2cccnc2)cc1)N1CCCCC1, the IC50 was > 54 µM (inactive). Cc1ccc(NC(=S)N2CCN(c3ncccn3)CC2)cc1C was tested, and the IC50 was > 54 µM (inactive). For CCN(CC)c1ccc(CNc2nc3ccccc3n2C)cc1, the IC50 was > 54 µM (inactive). COC(=O)C(CC(C)C)NC(=O)c1ccc(F)cc1 (stereo not drawn) was tested, and the IC50 was > 54 µM (inactive). With CCN1C(=O)/C(=c2\s/c(=C3\Sc4ccccc4N3C)c(=O)n2C)N(C)C1=S the IC50 was “inactive”. C#CCOCCOCCOCCNc1nc(N2CCN(C(=O)[C@H](CCCCN)n3cc(C(N)[C@H](C)CC)nn3)CC2)nc(N2CCN(C(=O)[C@H](CCC(=O)O)n3cc(C(N)[C@H](C)CC)nn3)CC2)n1 (stereo partly drawn) gave an IC50 of 1.93 µM. COc1cc(/C=C2/SC(N)=NC2=O)ccc1Oc1ccc([N+](=O)[O-])cc1[N+](=O)[O-] gave an IC50 of 3.5 µM. Cc1cc(C)nc(NCC(O)COc2ccccc2C)n1 (stereo not drawn) was tested, and the IC50 was > 54 µM (inactive). CCc1ccc(NC(=O)c2ccnc(C(C)(C)C)c2)cc1 was tested, and the IC50 was > 54 µM (inactive). For CCOc1cc(N2CCOCC2)c(OCC)cc1NC(=O)c1cc(-c2ccco2)nc2ccccc12, the IC50 was 12.5 µM. For CCOC(=O)c1[nH]cnc1C(=O)Nc1ccncc1, the IC50 was > 54 µM (inactive). With Cc1ccc(CNc2nc(C)nc3sc4c(c23)CCC4)cc1 the IC50 was > 54 µM (inactive). With CCC(CC)NC(=O)COC(=O)c1cc(Br)ccc1Cl the IC50 was > 54 µM (inactive). COc1ccc2c(c1)c(=O)oc1cc3oc(C)c(C)c3cc12 gave an IC50 of 17 µM. For CCCCOc1ccc(C(=O)NCCC(=O)NCCCC(=O)OCC)cc1, the IC50 was > 54 µM (inactive). With CC1C(c2ccccc2)N(C)CCC12NC(=O)NC2=O (stereo not drawn) the IC50 was > 54 µM (inactive). With Cc1ccc(N2C(=O)CC(Cn3nc(C)cc3C)C2=O)cc1 (stereo not drawn) the IC50 was > 54 µM (inactive). In the case of O=C(Nc1ccc(-c2nc3ccc(NC(=O)c4cccs4)cc3[nH]2)cc1)c1cccs1, the IC50 is reported as 0.79 µM. For Clc1ccccc1-c1nc2ccccc2[nH]1, the IC50 was > 54 µM (inactive). Work on C=CCn1cc(/C=N/NC(=O)COc2cccc3cccnc23)c2ccccc21 yielded an IC50 of 3.38 µM. For Cn1c2ccccc2c(=O)c2c(=O)n(C3CCCCCC3)c(C3CCCCC3)nc21, the IC50 was 2.27 µM. In the case of N/C(CS(=O)(=O)c1ccc(F)cc1)=N\O, the IC50 is reported as > 54 µM (inactive). N=C1/C(=C\c2ccc(-c3cccc(C(=O)O)c3)o2)C(=O)N=C2SC=C(c3ccccc3)N12 showed an IC50 of 4.64 µM. For O=c1c2ccccc2nc(/C=C/c2cccnc2)n1CCc1ccccc1, the IC50 was 0.63 µM. In the case of c1ccc2[nH]c(CN3CCOCC3)nc2c1, the IC50 is reported as > 54 µM (inactive). In the case of C=CCn1c(SCc2ccc(C#N)cc2)nnc1-c1cccc(OC)c1, the IC50 is reported as > 54 µM (inactive). For Cc1cccc(N(CC(=O)Nc2c(C)n(C)n(-c3ccccc3)c2=O)S(C)(=O)=O)c1, the IC50 was > 54 µM (inactive). With O=C(COc1cccc2c1CCN(Cc1ccc(Br)cc1)C2=O)NCc1ccco1 the IC50 was > 54 µM (inactive). C=C(C)Cn1c(Sc2nnc(C)s2)nc2c1c(=O)[nH]c(=O)n2C was tested, and the IC50 was > 54 µM (inactive). Cc1cc(=O)oc2cc(OCc3ccc(C(=O)OCC(=O)Nc4ccc(N(C)C)cc4)cc3)ccc12 gave an IC50 of 0.7 µM. Work on Cc1nc(NC(=O)c2ccco2)sc1-c1csc(Nc2ccc(Cl)cc2Cl)n1 yielded an IC50 of 0.77 µM. For CC(=O)Nc1ccc(S(=O)(=O)NCc2ccccn2)cc1, the IC50 was > 54 µM (inactive). C#CCOCCOCCOCCNc1nc(N2CCN(C(=O)[C@H](CCCCN)n3cc([C@@H](N)C(C)CC)nn3)CC2)nc(N2CCN(C(=O)[C@H](CCCCN)n3cc([C@@H](N)CO)nn3)CC2)n1 (stereo partly drawn) showed an IC50 of 0.63 µM. CC(NCc1ccc2c(c1)OCO2)C(=O)NC1CCCc2ccccc21 (stereo not drawn) was tested, and the IC50 was > 54 µM (inactive). For COc1ccc(C(=O)C2CCCN(Cc3cn[nH]c3-c3ccc(F)cc3)C2)cc1OC (stereo not drawn), the IC50 was > 54 µM (inactive). O=C(CSc1nc2c(cnn2-c2ccc(F)cc2)c(=O)[nH]1)N1CCCc2ccccc21 was tested, and the IC50 was > 54 µM (inactive). For Cc1cccc(N2CCN(C(=S)Nc3ccc4nc(N5CCN(C)CC5)cc(C)c4c3)CC2)c1C, the IC50 was 2.95 µM. For COc1cc(C(=O)N/N=C\c2ccccc2)c([N+](=O)[O-])c(OC)c1OC, the IC50 was > 54 µM (inactive). For O=C(Nc1nccs1)C1CC(=O)N(Cc2ccco2)C1 (stereo not drawn), the IC50 was > 54 µM (inactive). For COc1ccc(-c2cc(C(F)(F)F)nc(N3CCOCC3)n2)cc1OC, the IC50 was > 54 µM (inactive). O=C(CP(=O)(c1ccccc1)c1ccccc1)Nc1nc2ccc(Cl)cc2s1 was tested, and the IC50 was > 54 µM (inactive). In the case of CCOc1ccc(-n2c(-c3ccoc3)nc3ccccc3c2=O)cc1, the IC50 is reported as > 54 µM (inactive). With CC(C)(C)c1nc2ccccc2c2nnc(SCC(=O)Nc3nc4ccccc4s3)n12 the IC50 was 2.03 µM. For COc1ccccc1NC(=O)COc1cc(Br)c(CNCCCN2CCOCC2)cc1OC, the IC50 was > 54 µM (inactive). COC(=O)c1ccc(NC(=O)c2ccccc2N(C)S(=O)(=O)c2ccccc2)cc1 was tested, and the IC50 was > 54 µM (inactive).
